Measurements taken from patent publication US11419336B2, “Herbicidal combination” (UPL LTD, priority 2017, dated 2022).

Assays:
Digera sp. = test: Field trial, burndown weed control on broadleaf weeds; format: in vivo; settings: g ai/ha: saflufenacil 140, metribuzin 1150, pendimethalin 500 alone, mixture 112 + 920 + 571
Experimental: (§1) Studies were conducted to compare the weed controlling activity of the combination of saflufenacil, a triazine herbicide and pendimethalin. […] Any difference between the observed and “expected” efficacy could be attributed to synergy between the compounds in the control of a broad spectrum of weeds. The expected efficacy of a combination of saflufenacil, a triazine herbicide and an pendimethalin was calculated using the well-established Colby method.
(§2) In the Colby method, the expected (or predicted) response of a combination of herbicides is calculated by taking the product of the observed response for each individual component of the combination when applied alone divided by 100 and subtracting this value from the sum of the observed response for each component when applied alone. An unexpected enhancement in efficacy of the combination is then determined by comparing the observed response of the combination to the expected (or predicted) response as calculated from the observed response of each Individual component alone. If the observed response of the combination is greater than the expected (or predicted) response, or stated conversely, if the difference between the observed and expected response is greater than zero, then the combination is said to be synergistic or unexpectedly effective. (Colby, S. R., Weeds, 1967(15), p. 20-22) The Colby method requires only a single dose of each herbicide applied alone and the mixture of both doses.
(§3) The weed control activity of the individual herbicides of the invention and their combinations were evaluated on weeds such as those belonging to Echinochloa colona, Digitaria sanguinalis, Amaranthus viridis, Commelina benghalensis, and Cyperus rotundus. The trial was carried out in Randomized Complete Block (RCB) method. Each trial was replicated four times and conducted under GEP guidelines. Application volumes were varied for each mixture. Such field trials were carried out at various locations so as to generate independent data, the locations were chosen randomly across India. Saflufenacil, metribuzin and pendimethalin were sprayed according to their recommended dosage.
(§4) The following formula was used to calculate the expected activity of mixtures containing three active ingredients, A, B and C:
(§5) A=observed efficacy of active ingredient A at the same concentration as used in the mixture.
(§6) B=observed efficacy of active ingredient B at the same concentration as used in the mixture.
(§7) C=observed efficacy of active ingredient C at the same concentration as Used in the mixture.

Eleucine indica [1] = test: Field trial, burndown weed control on grasses; format: in vivo; settings: 15 DAA; g ai/ha: saflufenacil 140, metribuzin 1150, pendimethalin 500 alone; mixture 112 + 920 + 571
Eleucine indica [2] = test: Field trial, burndown weed control on grasses; format: in vivo; settings: g ai/ha: saflufenacil 140, metribuzin 1150, pendimethalin 500 alone, mixture 140 + 1150 + 500
Experimental: as §1, §2, §3, §4, §5, §6, §7

Echinochloa colona = test: Field trial, burndown weed control on grasses; format: in vivo; settings: g ai/ha: saflufenacil 140, metribuzin 1150, pendimethalin 500 alone
Experimental: as §1, §2, §3, §4, §5, §6, §7

Digitaria sanguinalis = test: Field trial, burndown weed control on grasses; format: in vivo; settings: g ai/ha: saflufenacil 140, metribuzin 1150, pendimethalin 500 alone
Experimental: as §1, §2, §3, §4, §5, §6, §7

Cyperus rotundus = test: Field trial, burndown weed control on sedges; format: in vivo; settings: g ai/ha: saflufenacil 140, metribuzin 1150, pendimethalin 500 alone, mixture 112 + 920 + 571
Experimental: Studies were conducted to compare the weed controlling activity of the combination of saflufenacil, a triazine herbicide and pendimethalin. […] Any difference between the observed and “expected” efficacy could be attributed to synergy between the compounds in the control of a broad spectrum of weeds. The expected efficacy of a combination of saflufenacil, a triazine herbicide and an pendimethalin was calculated using the well-established Colby method. […] An unexpected enhancement in efficacy of the combination is then determined by comparing the observed response of the combination to the expected (or predicted) response as calculated from the observed response of each Individual component alone. If the observed response of the combination is greater than the expected (or predicted) response, or stated conversely, if the difference between the observed and expected response is greater than zero, then the combination is said to be synergistic or unexpectedly effective. (Colby, S. R., Weeds, 1967(15), p. 20-22) The Colby method requires only a single dose of each herbicide applied alone and the mixture of both doses. The weed control activity of the individual herbicides of the invention and their combinations were evaluated on weeds such as those belonging to Echinochloa colona, Digitaria sanguinalis, Amaranthus viridis, Commelina benghalensis, and Cyperus rotundus. The trial was carried out in Randomized Complete Block (RCB) method. Each trial was replicated four times and conducted under GEP guidelines. Application volumes were varied for each mixture. Such field trials were carried out at various locations so as to generate independent data, the locations were chosen randomly across India. Saflufenacil, metribuzin and pendimethalin were sprayed according to their recommended dosage. The following formula was used to calculate the expected activity of mixtures containing three active ingredients, A, B and C: [formula] • Where A=observed efficacy of active ingredient A at the same concentration as used in the mixture. B=observed efficacy of active ingredient B at the same concentration as used in the mixture. C=observed efficacy of active ingredient C at the same concentration as Used in the mixture.

weeds = settings: saflufenacil alone; cited from earlier work
[3] = 15 DAA, mixture 112 + 920 + 571
[4] = 15 DAA, mixture 140 + 1150 + 500
[5] = Table 3, 30 DAA, mixture 140 + 1150 + 500
[6] = Table 4, 30 DAA, mixture 140 + 1150 + 500

Row | SMILES | % Weed control Burn Down Symptoms Generation, Digera sp. at 15 DAA, Actual (Digera sp.) | % Weed control Burn Down Symptoms Generation, Digera sp. at 30 DAA, Actual (Digera sp.) | % Weed control Burn Down Symptoms Generation, Eleucine indica, Actual (Eleucine indica [1]) | % Weed control Burn Down Symptoms Generation, Eleucine indica, Actual (Eleucine indica [2]; 15 DAA) | % Weed control Burn Down Symptoms Generation, Eleucine indica, Actual (Eleucine indica [2]; Table 3, 30 DAA) | % Weed control Burn Down Symptoms Generation, Eleucine indica, Actual (Eleucine indica [2]; Table 4, 30 DAA) | % Weed control Burn Down Symptoms Generation, Echinochloa colona, Actual (Echinochloa colona; [3]) | % Weed control Burn Down Symptoms Generation, Echinochloa colona, Actual (Echinochloa colona; [4]) | % Weed control Burn Down Symptoms Generation, Echinochloa colona, Actual (Echinochloa colona; [5]) | % Weed control Burn Down Symptoms Generation, Echinochloa colona, Actual (Echinochloa colona; [6]) | % Weed control Burn Down Symptoms Generation, Digitaria sanguinalis, Actual (Digitaria sanguinalis; [3]) | % Weed control Burn Down Symptoms Generation, Digitaria sanguinalis, Actual (Digitaria sanguinalis; [4]) | % Weed control Burn Down Symptoms Generation, Digitaria sanguinalis, Actual (Digitaria sanguinalis; [5]) | % Weed control Burn Down Symptoms Generation, Digitaria sanguinalis, Actual (Digitaria sanguinalis; [6]) | % Weed control Burn Down Symptoms Generation, Cyperus rotundus at 15 DAA, Actual (Cyperus rotundus) | % Weed control Burn Down Symptoms Generation, Cyperus rotundus at 30 DAA, Actual (Cyperus rotundus) | Efficacy in weed control beyond 30 days after treatment (weeds)
1 | CSc1nnc(C(C)(C)C)c(=O)n1N [Metribuzin, 4-amino-6-tert-butyl-4,5-dihydro-3-methylthio-1,2,4-triazin-5-one] | 8.3% | 8.3% | 8.3% | 8.3% | 5.7% | 5.7% | 6.7% | 6.7% | 10% | 10% | 13.3% | 13.3% | 10% | 10% | 6.7% | 8.3% | –
2 | CCC(CC)Nc1c([N+](=O)[O-])cc(C)c(C)c1[N+](=O)[O-] [Pendimethalin, N-(1-ethylpropyl)-2,6-dinitro-3,4-xylidine] | 66.7% | 7.0% | 46.7% | 46.7% | 45% | 45% | 58.3% | 58.3% | 53.3% | 53.3% | 56.7% | 56.7% | 50% | 50% | 31.7% | 25% | –
3 | CC(C)N(C)S(=O)(=O)NC(=O)c1cc(-n2c(=O)cc(C(F)(F)F)n(C)c2=O)c(F)cc1Cl [Saflufenacil, N′-{2-chloro-4-fluoro-5-[1,2,3,6-tetrahydro-3-methyl-2,6-dioxo-4-(trifluoromethyl)pyrimidin-1-yl]benzoyl}-N-isopropyl-N-methylsulfamide] | 69.7% | 68.3% | 13.3% | 13.3% | 9.3% | 9.3% | 8.3% | 8.3% | 13% | 13% | 56.7% | 56.7% | 13.3% | 13.3% | 15% | 20% | reduced efficacy
